For experiment [1], the system named is Digitaria ciliaris. Kind of experiment: Herbicidal activity, soil spray on day of sowing, pot test in greenhouse, evaluated after seven days (Example 2). Conditions: 20 g/ha; sprayed on day of sowing; seven days after spray treatment; scale 0 to 100. The class given is in vivo. The procedure: (§1) Digitaria ciliaris was sowed on a plastic pot filled with a soil. Following the sowing, on the day of the sowing, a mixed liquid of flumioxazin, pyrasulfotole, and mefenpyr-diethyl was sprayed uniformly so that the amounts of the agents might become those shown in Table 2 in a sprayed water amount of 500 L/ha. The mixed liquid of flumioxazin, pyrasulfotole, and mefenpyr-diethyl was prepared by dissolving the respective compounds in prescribed amounts separately in acetone containing 2% (w/v) of Tween 20 (surfactant, produced by Tokyo Chemical Industry Co., Ltd.), diluting the respective solutions with water and then combining them, followed by dilution with water so that the final acetone concentration of the spray liquid might be 10% by volume. After the spray treatment, the pot was carried into a greenhouse. Seven days after the spray treatment, the herbicidal activity to Digitaria ciliaris was evaluated.

The test system of experiment [2] is Digitaria ciliaris. Kind of experiment: Herbicidal activity, soil spray on day of sowing, pot test in greenhouse, evaluated after ten days (Example 3). The format is in vivo. Conditions: 2 g/ha; sprayed on day of sowing; ten days after spray treatment; scale 0 to 100. How it is done:
as §1, with “those as” for “those”, “Table 3” for “Table 2”, “greenhouse. Ten” for “greenhouse. Seven”

For the compound `C#CCN1C(=O)COc2cc(F)c(N3C(=O)C4=C(CCCC4)C3=O)cc21` [Flumioxazin], the “Herbicidal activity Digitaria ciliaris” value was 10 in the experiment with Digitaria ciliaris [1] and 40 with Digitaria ciliaris [2].

Source of the values: patent US8932986B2, “Herbicidal composition” (Sumitomo Chemical Company, Limited, priority 2012, dated 2015).
